Measured values reported in publication PMC6008883, “Identification of Peptide Antagonists to Thioredoxin Glutathione Reductase of Schistosoma japonicum” (BioMed Research International, 2018).

Legend:
SjTGR [1] = assay: Phage binding to recombinant SjTGR by ELISA; parameters: species or system Schistosoma japonicum; settings: mean of triplicates; for Binding to SjTGR (ELISA OD450nm): phage 1×10^12 pfu/ml, HRP-conjugated anti-M13 antibody, TMB, positive if OD450nm 2.1 times above negative control, binding decreased with decreasing titers
Description: Phage clones were amplified according to the manual. A 96-well plate was coated with 100 μl of SjTGR solution (10 μg/ml, 0.1 M NaHCO3, pH 8.6) overnight at 4°C. After blocking with PBS containing 5% milk powder at rt for 1 h, 100 μl of phage solution with titers of 1 x 10^12, 2.5 x 10^11, 6 x 10^10, 1.5 x 10^10, and 3.75 x 10^9 pfu/ml was used per well, respectively. The phage library was set as the negative phage control. Following an incubation at 37°C for 2 h and six washes with TBST (0.5% Tween-20), 200 μl of diluted HRP-conjugated anti-M13 monoclonal antibody solution was added for 1 h at rt. Following six washes with TBST, 100 μl of substrate TMB solution was added for 10 minutes at rt. 50 μl of 2 M sulfuric acid solution (H2SO4) was added to terminate the reaction and absorbance at 450nm was measured. OD450nm values 2.1 times above the negative control value were considered positive.

[2] = system: Grx of SjTGR (thioredoxin glutathione reductase of Schistosoma japonicum); assay: Inhibition of Grx activity of SjTGR; format: biochemical; settings: phage clone, 10^11 pfu; SjTGR 48 nM; vs activity of SjTGR without phage; repeated three times; P<0.01 vs phage library for JIPDys1, JIPDys3
Description: (§1) To assess the inhibitory action of phages, the activities of TrxR, GR, and glutaredoxin (Grx) of SjTGR were assayed as described in [21]. 10 μl ([…]) of phage solution was added to the reaction system, phage library was used as negative phage control, and the effect of phages on the activity of SjTGR was expressed as percentage inhibition: Inhibition percentage = (activity of SjTGR – activity of SjTGR with isolated phage)/activity of SjTGR. The experiment was repeated three times.
(§2) The activities of TrxR, GR, and Grx of SjTGR were assayed with different concentrations (0.5 μM, 1 μM, and 2 μM) of the synthesized peptide JIPDys1 to determine the 50% inhibitory concentration (IC50), and the same amount of PBS was added to the system as control. The experiment was repeated three times. The IC50 values were calculated by curve fitting using the SPSS 13.0 software.
(§3) All data are given as the mean ± standard deviation (SD). The activities of TrxR, GR, and Grx of SjTGR (absorbance/S (ΔA/S)) with JIPDys1, JIPDys2, JIPDys3, and JIPDys4 were statistically compared with the negative phage control (phage library) using two-tailed Student's t-tests. The activities of TrxR, GR, and Grx of SjTGR (absorbance/S (ΔA/S)) with the synthesized peptide were statistically compared with PBS control using two-tailed Student's t-tests, too. SPSS 13.0 was used for the statistical analyses. Differences between mean values were considered to be significant at the level of 5%.

[3] = system: TrxR of SjTGR (thioredoxin glutathione reductase of Schistosoma japonicum); assay: Inhibition of TrxR activity of SjTGR; format: biochemical; settings: phage clone, 10^11 pfu; SjTGR 48 nM; vs activity of SjTGR without phage; repeated three times; P<0.01 vs phage library for JIPDys1, JIPDys2, JIPDys3
Description: To assess the inhibitory action of phages, the activities of TrxR, GR, and glutaredoxin (Grx) of SjTGR were assayed as described in [21]. […], phage library was used as negative phage control, and the effect of phages on the activity of SjTGR was expressed as percentage inhibition: Inhibition percentage = (activity of SjTGR – activity of SjTGR with isolated phage)/activity of SjTGR. The experiment was repeated three times.
as §2, §3

[4] = system: GR of SjTGR (thioredoxin glutathione reductase of Schistosoma japonicum); assay: Inhibition of GR activity of SjTGR; format: biochemical; settings: phage clone, 10^11 pfu; SjTGR 48 nM; vs activity of SjTGR without phage; repeated three times; P<0.01 vs phage library for JIPDys1, JIPDys2
Description: To assess the inhibitory action of phages, the activities of TrxR, GR, and glutaredoxin (Grx) of SjTGR were assayed as described in [21]. […] system, phage library was used as negative phage control, and the effect of phages on the activity of SjTGR was expressed as percentage inhibition: Inhibition percentage = (activity of SjTGR – activity of SjTGR with isolated phage)/activity of SjTGR. The experiment was repeated three times.
as §2, §3

SjTGR [5] = assay: Inhibition of SjTGR enzyme activity (TrxR, GR and Grx overall); format: biochemical, Schistosoma japonicum; settings: JIPDys1 from phage screening
Description: as §1, §2

Sequence | Binding to SjTGR (ELISA OD450nm) (SjTGR [1]) | Percentage of inhibition of Grx [2] | Percentage of inhibition of TrxR [3] | Percentage of inhibition of GR [4] | Binding capacity compared with the other phages (SjTGR [1]; ELISA, phage titers 3.75 x 10^9 to 1.0 x 10^12 pfu/ml) | Inhibition of SjTGR activity (SjTGR [5])
KHMHWHPPALNT [JIPDys4, M13 phage clone from Ph.D.-12 library displaying peptide …] | bound to SjTGR | 1.23% | 0.73% | 1.50% | – | –
LHAETRSAMHRT [JIPDys2, M13 phage clone from Ph.D.-12 library displaying peptide …] | bound to SjTGR | 25.64% | 45.24% | 69.43% | – | –
WPHNWWPHFKVK [JIPDys1, M13 phage clone from Ph.D.-12 library displaying peptide …] | bound to SjTGR | 53.56% | 59.04% | 80.80% | strongest binding capacity among those phages | more than 50%
YTMPSLTLYAMG [JIPDys3, M13 phage clone from Ph.D.-12 library displaying peptide …] | bound to SjTGR | 43.02% | 54.72% | 20.88% | – | –
